Source: patent publication US20260294871A1, “PHARMACEUTICAL COMBINATIONS AND COMPOSITIONS THEREOF COMPRISING ANTIBACTERIAL AGENTS” (priority 2023, published 2026)
Read-outs that look alike come from different tables or passages of the source.

Columns and labels:
[1] = tested on: all grouped isolates from India; assay: MIC by broth microdilution against all grouped isolates from India; type: cell-based, resistant bacterial strains
Method: (§1) In a typical study MIC tests were performed by broth microdilution in line with CLSI susceptibility testing standards. Bacterial inocula were prepared at ca. 1×10^6 CFU/mL by diluting 100-fold a 0.5 McFarland suspension in CA-MHB with TES. Microtiter plate wells containing 50 μL of antibacterial solutions at 2×the final concentrations were diluted 2-fold with 50 μL of inoculum to give a final inoculum of ca. 5×10^5 CFU/mL and desired test concentrations of antibacterial agents. Test microtiter plates were incubated according to CLSI guidelines and read visually. MIC values corresponded to the first well with no visible growth.
There was a marked improvement in antibacterial activity, compared to MEM alone, observed for the triple combinations, for MEM/AVI [4 mg/L]/EDTA [10 mM] and MEM/AVI [4 mg/L]/EDTA [20 mM], the reduction in MIC90 was 0.06 μg/mL and ≤0.002 μg/mL, respectively.

[2] = tested on: P. aeruginosa; assay: MIC by broth microdilution against P. aeruginosa; type: cell-based, Pseudomonas aeruginosa
Method: as §1
The results of antibacterial activity of amikacin, Ceftazidime-avibactam, Ceftriaxone with sulbactam and EDTA, Meropenem and Meropenem with avibactum and EDTA against highly resistant strains of P. aeruginosa are given in Table 5. As may be seen, the activity of the comparators was much lower although CRO/S4/E10 maximum MIC90 were much lower at ≤0.03 μg/mL.

[3] = tested on: Non-Enterobacteriaceae (non-fermenter isolates); assay: MIC by broth microdilution against Non-Enterobacteriaceae; type: cell-based
Method: as §1

[4] = tested on: K. pneumoniae; assay: Frequency of Resistance (FOR) Study, K. pneumoniae; type: cell-based
Method: (§2) Objective: The in-vitro study was conducted to determine the frequency of resistance in 8 characterized isolates.
(§3) • Isolates: 8 isolates-E. coli (3), K. pneumoniae (2), A. baumannii (1) and P. aeruginosa (2) • Compound tested: Meropenem; Meropenem Avibactam (4); Meropenem EDTA (10 mM); Meropenem Avibactam (4) EDTA (10 mM) • Antibiotic Concentration used: […]

[5] = tested on: E. coli, K. pneumoniae, P. aeruginosa A. baumannii and E. cloacae; assay: Effects of body fluids on MIC, all tested isolates; type: cell-based, Gram-negatives clinical isolates
Method: Objective: The combinations of meropenem (MEM) in the presence of different concentrations of avibactam (AVI) and EDTA were tested. The triple combination test compounds were investigated for in-vitro activity in presence cation-adjusted Mueller Hinton broth (CA-MHB) and CA-MHB supplemented with different body fluids i.e. human serum (25% and 50%), pooled urine (25% and 50%), bovine Surfactant (1 and 5%) and human peritoneal fluid (25 and 50%) against the a set of Gram-negatives clinical isolates from India.
Method: The tolerance screening was performed on a total of 60 isolates to ascertain tolerance to body fluids and total 19 isolates including ATCC strains and non-duplicate clinically relevant Escherichia coli (n=6), Klebsiella pneumoniae (n=3), Pseudomonas aeruginosa (n=6) Acinetobacter baumannii (n=3) and Enterobacter cloacae (n=1) were selected prior to susceptibility testing. Tested compounds included Meropenem with AVI at 4 and EDTA at 10 mM (MEM/A4/E10), Meropenem with AVI at 4 and EDTA at 20 mM (MEM/A4/E20), Meropenem with AVI at 8 and EDTA at 10 mM (MEM/A8/E10), Meropenem with AVI at 8 and EDTA at 20 mM (MEM/A8/E20), Meropenem (MEM), Ceftriaxone with sulbactam at […] and EDTA at 10 mM (CRO/S10/E10), Ceftazidime-avibactam (CZA), Amikacin (AMK), Tigecycline and Minocycline. […]

[6] = tested on: K. pneumoniae; assay: MIC of Time Kill Assay isolates, K. pneumoniae; type: cell-based; settings: Klebsiella pneumoniae; TKA isolates
Method: Objective: The in-vitro Time Kill Assay study was conducted to determine the log reduction in 5 characterised MDR isolates.
• Isolates: 5 isolates-E. coli (3), K. pneumoniae (2) • Compound tested: Meropenem; Meropenem Avibactam (4); Meropenem EDTA (10 mM); Meropenem Avibactam (4) EDTA (10 mM) • 1 log—90% killing, 2 log 99% killing and 3 log 99.9% killing. Bactericidal: 3 log reduction (99.9% killing) • MIC: […]

[7] = tested on: E. coli; settings: cited from earlier work
[8] = tested on: Escherichia coli; assay: MIC by broth microdilution against E. coli; type: cell-based
Method: as §1
The results of antibacterial activity of amikacin, Ceftazidime-avibactam, Ceftriaxone with sulbactam and EDTA, Meropenem and Meropenem with avibactam and EDTA against highly resistant strains of Escherichia coli are given in Table 3. […] There was a marked improvement in antibacterial activity, compared to MEM alone, observed for the triple combination MEM/AVI [4 mg/L]/EDTA [10 mM] with a MIC90 at 0.004 μg/mL

[9] = tested on: E. coli; assay: Frequency of Resistance (FOR) Study, E. coli; type: cell-based
Method: as §2, §3

[10] = tested on: P. aeruginosa; assay: Frequency of Resistance (FOR) Study, P. aeruginosa; type: cell-based; further: key: TMTC: To more to count
Method: as §2, §3

**Q.** What does the source list for `C[C@@H](O)[C@H]1C(=O)N2C(C(=O)O)=C(S[C@@H]3CN[C@H](C(=O)N(C)C)C3)[C@H](C)[C@H]12` [Meropenem, (4R,5S,6S)-3-(((3S,5S)-5-(dimethylcarbamoyl)pyrrolidin-3-yl)thio)-6-((R)-1-hydroxyethyl)-4-methyl-7-oxo-1-azabicyclo[3.2.0]hept-2-ene-2-carboxylic acid]?
**A.** MIC50 [1]: > 32 µg/mL; MIC90 [1]: > 32 µg/mL; MIC90 ([1]; MEM-NS isolates (n=534)): > 32 µg/mL; MIC50 ([1]; all grouped isolates (606)): >32 µg/mL; MIC90 ([1]; all grouped isolates (606)): > 32 µg/mL; MIC90 ([2]; MEM-NS isolates (n=120)): > 32 µg/mL; MIC50 ([2]; Pseudomonas aeruginosa, highly resistant strains): > 32 µg/mL; MIC90 ([2]; Pseudomonas aeruginosa, highly resistant strains, read-out: MIC90): > 32 µg/mL; MIC90 ([2]; highly resistant strains): >32 µg/mL; MEM-NS isolates ([2]; n=120): 92.7%; MIC50 [3]: > 32 µg/mL; MIC90 [3]: > 32 µg/mL; MIC50 ([3]; highly resistant strains): >32 µg/mL; MIC90 ([3]; highly resistant strains): >32 µg/mL; MIC90 ([3]; highly resistant strains, listed as MEM): > 32 µg/mL; MEM-NS isolates ([3]; n=284): 88.9%; count, 24 H of Incubation ([4]; strain 6 - K. pneumoniae, ATB concentration 4x): TMTC; count, 24 H of Incubation ([4]; strain 6 - K. pneumoniae, ATB concentration 8x): 303; count, 24 H of Incubation ([4]; strain 6 - K. pneumoniae, ATB concentration 16x): 0; count, 24 H of Incubation ([4]; strain 7 - K. pneumoniae, ATB concentration 4x): TMTC; count, 24 H of Incubation ([4]; strain 7 - K. pneumoniae, ATB concentration 8x): TMTC; count, 24 H of Incubation ([4]; strain 7 - K. pneumoniae, ATB concentration 16x): TMTC; MIC [5]: > 32 µg/mL; MIC [6]: > 32 µg/mL; CLSI Range of MIC [7]: 0.008 to 0.06 µg/mL; MIC50 ([8]; Escherichia coli, highly resistant strains, read-out: MIC50): > 32 µg/mL; MIC90 ([8]; Escherichia coli, highly resistant strains, read-out: MIC90): > 32 µg/mL; MIC50 ([8]; MEM-NS isolates (n=105)): > 32 µg/mL; MIC90 ([8]; MEM-NS isolates (n=105)): > 32 µg/mL; MIC50 ([8]; highly resistant strains): >32 µg/mL; MIC90 ([8]; highly resistant strains): >32 µg/mL; MEM-NS isolates ([8]; n=105): 88.2%; count, 24 H of Incubation ([9]; strain 1 - E. coli, ATB concentration 4x): 0; count, 24 H of Incubation ([9]; strain 1 - E. coli, ATB concentration 8x): 0; count, 24 H of Incubation ([9]; strain 1 - E. coli, ATB concentration 16x): 0; count, 24 H of Incubation ([9]; strain 4 - E. coli, ATB concentration 4x): TMTC; count, 24 H of Incubation ([9]; strain 4 - E. coli, ATB concentration 8x): TMTC; count, 24 H of Incubation ([9]; strain 4 - E. coli, ATB concentration 16x): TMTC; count, 24 H of Incubation ([9]; strain 5 - E. coli, ATB concentration 4x): 0; count, 24 H of Incubation ([9]; strain 5 - E. coli, ATB concentration 8x): 0; count, 24 H of Incubation ([9]; strain 5 - E. coli, ATB concentration 16x): 0; count, 24 H of Incubation ([10]; strain 2 - P. aeruginosa, ATB concentration 4x): TMTC; count, 24 H of Incubation ([10]; strain 2 - P. aeruginosa, ATB concentration 8x): TMTC; count, 24 H of Incubation ([10]; strain 2 - P. aeruginosa, ATB concentration 16x): TMTC; count, 24 H of Incubation ([10]; strain 3 - P. aeruginosa, ATB concentration 4x): TMTC; count, 24 H of Incubation ([10]; strain 3 - P. aeruginosa, ATB concentration 8x): TMTC; count, 24 H of Incubation ([10]; strain 3 - P. aeruginosa, ATB concentration 16x): TMTC
